Results taken from US8524705B2, “2-oxo-2-(2-phenyl-5,6,7,8-tetrahydro-indolizin-3-yl)-acetamide derivatives and related compounds as antifungal agents” (F2G Limited British Body Corporate, priority 2007, dated 2013).
Converted amounts (≈) assume the structure as drawn.

Experiments:
Format in all cases: cell-based
Conditions in all cases: banded into grades
Aspergillus flavus = experiment: Measurement of Minimum Inhibitory Concentrations (MICs), A. flavus
Description: (§1) Between 1 and 5 mgs of compound were accurately weighed out into a sterile Eppendorf tube. The compound was dissolved in DMSO to give a solution containing 5 mg/mL. Tubes were stored at −20° C. until required. On the day of testing thawed solutions were vortex mixed to ensure homogeneity. 30 μL of solution was removed and added to 570 μL of sterile water in a separate sterile Eppendorf. The thoroughly mixed solution was used to prepare a series of doubling dilutions in water, in a deep well plate. […] replicate plates were prepared using a Minitrak by aspirating […] from each well into eleven clear polystyrene 96 well plates. Spores of Aspergillus spp. (Aspergillus fumigatus [two strains], Aspergillus terreus [two strains], Aspergillus niger and Aspergillus flavus) were harvested from cultures grown on Sabarauds agar for 5 days, and resuspended in PBS/Tween 80 to approx 1×10^7 cfu/mL. Each organism suspension was diluted in YAG medium (1% glucose, 1% ammonium chloride and 0.5% yeast extract) to 0.5-2×10^4 cfu/mL. 80 μL of an organism suspension was added to each well of the plate containing drug dilutions. This produced MIC plates with a drug range 50-0.05 mg/L and organism inocula of 1−2×10^4 cfu/mL for Aspergillus spp. All plates were incubated for 24 hrs at 35° C. Growth was assessed by monitoring the optical density at 485 nm for each well. The MIC of a compound is the lowest drug concentration that inhibits growth of an organism by >70% compared with a drug free control. MICs are recorded as mg/L. In cases where the MIC of an organism is >=0.05 mg/L the MIC is repeated using a concentration range of 0.5-0.0005 mg/L. Other growth media can be used for susceptibility testing, and the activity of the described compounds was also assessed in RPMI medium containing 2% glucose, and 0.135M MOPS buffer. MIC tests in YAG medium have more clear-cut endpoints and have slightly lower MICs than those performed in RPMI medium. The following organisms were tested: Aspergillus flavus, Aspergillus fumigatus AF293 and AF210, Aspergillus niger and Aspergillus terreus AT4 and AT49.

[1] = system: Aspergillus fumigatus AF210; experiment: Measurement of Minimum Inhibitory Concentrations (MICs), A. fumigatus 210
Description: as §1

[2] = system: Aspergillus fumigatus AF293; experiment: Measurement of Minimum Inhibitory Concentrations (MICs), A. fumigatus
Description: as §1

Aspergillus niger = experiment: Measurement of Minimum Inhibitory Concentrations (MICs), A. niger
Description: as §1

Aspergillus terreus AT49 = experiment: Measurement of Minimum Inhibitory Concentrations (MICs), A. terreus 49
Description: as §1

Aspergillus terreus AT4 = experiment: Measurement of Minimum Inhibitory Concentrations (MICs), A. terreus
Description: as §1

[3] = RPMI medium containing 2% glucose, 0.135M MOPS buffer
[4] = YAG medium, 24 hrs at 35° C., >70% growth inhibition

| Structure (SMILES) | MIC (Aspergillus flavus; [3]) | MIC (Aspergillus flavus; [4]) | MIC [1, 3] | MIC [1, 4] | MIC [2, 3] | MIC [2, 4] | MIC (Aspergillus niger; [3]) | MIC (Aspergillus niger; [4]) | MIC (Aspergillus terreus AT49; [3]) | MIC (Aspergillus terreus AT49; [4]) | MIC (Aspergillus terreus AT4; [3]) | MIC (Aspergillus terreus AT4; [4]) |
| --- | --- | --- | --- | --- | --- | --- | --- | --- | --- | --- | --- | --- |
| Cc1cc(OCCOc2ccc(NC(=O)C(=O)c3c(-c4ccccc4)cc4n3CCCC4)cc2)cc(C)n1 [Example 14, N-{4-[2-(2,6-Dimethyl-pyridin-4-yloxy)-ethoxy]-phenyl}-2-oxo-2-(2-phenyl-5,6,7,8-tetrahydro-indolizin-3-yl)-acetamide] | > 10 µg/mL | 1 to 10 µg/mL (≈ 1.96 to 19.6 µM) | 1 to 10 µg/mL (≈ 1.96 to 19.6 µM) | 1 to 10 µg/mL (≈ 1.96 to 19.6 µM) | 1 to 10 µg/mL (≈ 1.96 to 19.6 µM) | 1 to 10 µg/mL (≈ 1.96 to 19.6 µM) | 1 to 10 µg/mL (≈ 1.96 to 19.6 µM) | 1 to 10 µg/mL (≈ 1.96 to 19.6 µM) | < 1 µg/mL | < 1 µg/mL | < 1 µg/mL | 1 to 10 µg/mL (≈ 1.96 to 19.6 µM) |
| CCc1cccc(N2CCN(c3ccc(NC(=O)C(=O)c4c(-c5ccccc5)cc5n4CCCC5)cc3)CC2)n1 [Example 15, N-{4-[4-(6-Ethyl-pyridin-2-yl)-piperazin-1-yl]-phenyl}-2-oxo-2-(2-phenyl-5,6,7,8-tetrahydro-indolizin-3-yl)-acetamide] | < 1 µg/mL | < 1 µg/mL | < 1 µg/mL | < 1 µg/mL | < 1 µg/mL | < 1 µg/mL | < 1 µg/mL | < 1 µg/mL | < 1 µg/mL | < 1 µg/mL | < 1 µg/mL | < 1 µg/mL |
| Cc1ccc(N2CCN(c3ccc(NC(=O)C(=O)c4c(-c5ccccc5)cc5n4CCCC5)cc3)CC2)nc1 [Example 16, N-{4-[4-(5-Methyl-pyridin-2-yl)-piperazin-1-yl]-phenyl}-2-oxo-2-(2-phenyl-5,6,7,8-tetrahydro-indolizin-3-yl)-acetamide] | < 1 µg/mL | < 1 µg/mL | < 1 µg/mL | < 1 µg/mL | < 1 µg/mL | < 1 µg/mL | < 1 µg/mL | < 1 µg/mL | < 1 µg/mL | < 1 µg/mL | < 1 µg/mL | < 1 µg/mL |
| CCc1ccnc(N2CCN(c3ccc(NC(=O)C(=O)c4c(-c5ccccc5)cc5n4CCCC5)cc3)CC2)c1 [Example 17, N-{4-[4-(4-Ethyl-pyridin-2-yl)-piperazin-1-yl]-phenyl}-2-oxo-2-(2-phenyl-5,6,7,8-tetrahydro-indolizin-3-yl)-acetamide] | < 1 µg/mL | < 1 µg/mL | < 1 µg/mL | < 1 µg/mL | < 1 µg/mL | < 1 µg/mL | < 1 µg/mL | < 1 µg/mL | < 1 µg/mL | < 1 µg/mL | < 1 µg/mL | < 1 µg/mL |
| O=C(Nc1ccc(N2CCN(c3ccc(CN4CCOCC4)cn3)CC2)cc1)C(=O)c1c(-c2ccccc2)cc2n1CCCC2 [Example 18, N-{4-[4-(5-Morpholin-4-ylmethyl-pyridin-2-yl)-piperazin-1-yl]-phenyl}-2-oxo-2-(2-phenyl-5,6,7,8-tetrahydro-indolizin-3-yl)-acetamide] | < 1 µg/mL | < 1 µg/mL | < 1 µg/mL | < 1 µg/mL | < 1 µg/mL | < 1 µg/mL | < 1 µg/mL | < 1 µg/mL | < 1 µg/mL | < 1 µg/mL | < 1 µg/mL | < 1 µg/mL |
| Cc1cc(C)nc(N(C)CCCN(C)c2ccc(NC(=O)C(=O)c3c(-c4ccccc4)cc4n3CCCC4)cc2)c1 [Example 19, N-[4-({3-[(4,6-Dimethyl-pyridin-2-yl)-methyl-amino]-propyl}-methyl-amino)-phenyl]-2-oxo-2-(2-phenyl-5,6,7,8-tetrahydro-indolizin-3-yl)-acetamide] | < 1 µg/mL | < 1 µg/mL | < 1 µg/mL | < 1 µg/mL | < 1 µg/mL | < 1 µg/mL | < 1 µg/mL | < 1 µg/mL | < 1 µg/mL | < 1 µg/mL | < 1 µg/mL | < 1 µg/mL |
| Cc1cc(C)nc(N2CCN(c3ccc(NC(=O)C(=O)c4c(-c5ccccc5)cc5n4CCCC5)c(C)c3)CC2)c1 [Example 20, N-{4-[4-(4,6-Dimethyl-pyridin-2-yl)-piperazin-1-yl]-2-methyl-phenyl}-2-oxo-2-(2-phenyl-5,6,7,8-tetrahydro-indolizin-3-yl)-acetamide] | < 1 µg/mL | < 1 µg/mL | < 1 µg/mL | < 1 µg/mL | < 1 µg/mL | < 1 µg/mL | < 1 µg/mL | < 1 µg/mL | < 1 µg/mL | < 1 µg/mL | < 1 µg/mL | < 1 µg/mL |
